Measured values from PubChem BioAssay AID2060627 (Molecular Pharmacology Branch, DTP, NCI, 2025).

Test system: 156681-154-R-J1-PDC complex spheroid viability
Test: Anticancer human tumor 156681-154-R-J1-PDC patient-derived melanoma cell line growth inhibition [CLK]
Conditions: for IC50: curve of first compound; for viability, T/C: stronger effect = lower value
Outline: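 Multi-cell-type spheroids combined patient-derived tumor cells with HUVEC endothelial cells and human mesenchymal stem cells. Paired agents were dosed in half-log steps down from about clinical Cmax, or from 10 microM where Cmax was unknown.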
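Note: spheroids exposed to the agents for seven days.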
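Throughout, for viability, T/C: 100% = DMSO vehicle control viability.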

## C=CC(=O)Nc1cc(Nc2nccc(-c3cn(C)c4ccccc34)n2)c(OC)cc1N(C)CCN(C)C + CN1CCN(c2cc(C(=O)Nc3cc4cc(-c5cnn(C)c5)ccc4cn3)ccn2)CC1
Second compound 0.0316 µM
  IC50: > 300 nM
Second compound 0.1 µM
  IC50: > 300 nM
Second compound 0.316 µM
  IC50: < 0.949 nM
Second compound 1 µM
  IC50: < 0.949 nM
Second compound 3.16 µM
  IC50: < 0.949 nM
Second compound 10 µM
  IC50: < 0.949 nM
Second compound 0.0316 µM, first compound 0.000949 µM
  viability, T/C: 102%
Second compound 0.0316 µM, first compound 0.003 µM
  viability, T/C: 91.7%
Second compound 0.0316 µM, first compound 0.00949 µM
  viability, T/C: 112%
Second compound 0.0316 µM, first compound 0.03 µM
  viability, T/C: 89.8%
Second compound 0.0316 µM, first compound 0.0949 µM
  viability, T/C: 94.8%
Second compound 0.0316 µM, first compound 0.3 µM
  viability, T/C: 90%
Second compound 0.1 µM, first compound 0.000949 µM
  viability, T/C: 99.7%
Second compound 0.1 µM, first compound 0.003 µM
  viability, T/C: 90.2%
Second compound 0.1 µM, first compound 0.00949 µM
  viability, T/C: 97.7%
Second compound 0.1 µM, first compound 0.03 µM
  viability, T/C: 94.7%
Second compound 0.1 µM, first compound 0.0949 µM
  viability, T/C: 77.6%
Second compound 0.1 µM, first compound 0.3 µM
  viability, T/C: 79.9%
Second compound 0.316 µM, first compound 0.000949 µM
  viability, T/C: 19.2%
Second compound 0.316 µM, first compound 0.003 µM
  viability, T/C: 26.4%
Second compound 0.316 µM, first compound 0.00949 µM
  viability, T/C: 23.4%
Second compound 0.316 µM, first compound 0.03 µM
  viability, T/C: 13.1%
Second compound 0.316 µM, first compound 0.0949 µM
  viability, T/C: 24.2%
Second compound 0.316 µM, first compound 0.3 µM
  viability, T/C: 11.1%
Second compound 1 µM, first compound 0.000949 µM
  viability, T/C: 0.2%
Second compound 1 µM, first compound 0.003 µM
  viability, T/C: 0.66%
Second compound 1 µM, first compound 0.00949 µM
  viability, T/C: 0.19%
Second compound 1 µM, first compound 0.03 µM
  viability, T/C: 0.27%
Second compound 1 µM, first compound 0.0949 µM
  viability, T/C: 0.26%
Second compound 1 µM, first compound 0.3 µM
  viability, T/C: 1.38%
Second compound 3.16 µM, first compound 0.000949 µM
  viability, T/C: 0.16%
Second compound 3.16 µM, first compound 0.003 µM
  viability, T/C: 1.53%
Second compound 3.16 µM, first compound 0.00949 µM
  viability, T/C: 0.47%
Second compound 3.16 µM, first compound 0.03 µM
  viability, T/C: 0.12%
Second compound 3.16 µM, first compound 0.0949 µM
  viability, T/C: 1.26%
Second compound 3.16 µM, first compound 0.3 µM
  viability, T/C: 0.93%
Second compound 10 µM, first compound 0.000949 µM
  viability, T/C: 1.34%
Second compound 10 µM, first compound 0.003 µM
  viability, T/C: 0.16%
Second compound 10 µM, first compound 0.00949 µM
  viability, T/C: 0.96%
Second compound 10 µM, first compound 0.03 µM
  viability, T/C: 1.65%
Second compound 10 µM, first compound 0.0949 µM
  viability, T/C: 2.39%
Second compound 10 µM, first compound 0.3 µM
  viability, T/C: 2.57%

## CCc1c2c(nc3ccc(O)cc13)-c1cc3c(c(=O)n1C2)COC(=O)[C@]3(O)CC + CNC(=O)c1ccc(Nc2nc(OC3CCCC3)c3c(-c4ccc5nc(C)oc5c4)c[nH]c3n2)c(OC)c1
Second compound 0.0316 µM
  IC50: < 3.16 nM
Second compound 0.1 µM
  IC50: < 3.16 nM
Second compound 0.316 µM
  IC50: < 3.16 nM
Second compound 1 µM
  IC50: < 3.16 nM
Second compound 3.16 µM
  IC50: < 3.16 nM
Second compound 10 µM
  IC50: < 3.16 nM
Second compound 0.0316 µM, first compound 0.00316 µM
  viability, T/C: 27.7%
Second compound 0.0316 µM, first compound 0.01 µM
  viability, T/C: 15%
Second compound 0.0316 µM, first compound 0.0316 µM
  viability, T/C: 18%
Second compound 0.0316 µM, first compound 0.1 µM
  viability, T/C: 19.4%
Second compound 0.0316 µM, first compound 0.316 µM
  viability, T/C: 16.6%
Second compound 0.0316 µM, first compound 1 µM
  viability, T/C: 4.47%
Second compound 0.1 µM, first compound 0.00316 µM
  viability, T/C: 24.1%
Second compound 0.1 µM, first compound 0.01 µM
  viability, T/C: 16.7%
Second compound 0.1 µM, first compound 0.0316 µM
  viability, T/C: 14%
Second compound 0.1 µM, first compound 0.1 µM
  viability, T/C: 17.7%
Second compound 0.1 µM, first compound 0.316 µM
  viability, T/C: 14.9%
Second compound 0.1 µM, first compound 1 µM
  viability, T/C: 5.02%
Second compound 0.316 µM, first compound 0.00316 µM
  viability, T/C: 27.4%
Second compound 0.316 µM, first compound 0.01 µM
  viability, T/C: 14.2%
Second compound 0.316 µM, first compound 0.0316 µM
  viability, T/C: 12.8%
Second compound 0.316 µM, first compound 0.1 µM
  viability, T/C: 16.4%
Second compound 0.316 µM, first compound 0.316 µM
  viability, T/C: 14.8%
Second compound 0.316 µM, first compound 1 µM
  viability, T/C: 5.29%
Second compound 1 µM, first compound 0.00316 µM
  viability, T/C: 21.9%
Second compound 1 µM, first compound 0.01 µM
  viability, T/C: 11.3%
Second compound 1 µM, first compound 0.0316 µM
  viability, T/C: 10.5%
Second compound 1 µM, first compound 0.1 µM
  viability, T/C: 14.7%
Second compound 1 µM, first compound 0.316 µM
  viability, T/C: 9.49%
Second compound 1 µM, first compound 1 µM
  viability, T/C: 5.41%
Second compound 3.16 µM, first compound 0.00316 µM
  viability, T/C: 20.9%
Second compound 3.16 µM, first compound 0.01 µM
  viability, T/C: 15.8%
Second compound 3.16 µM, first compound 0.0316 µM
  viability, T/C: 10.4%
Second compound 3.16 µM, first compound 0.1 µM
  viability, T/C: 14.2%
Second compound 3.16 µM, first compound 0.316 µM
  viability, T/C: 13.1%
Second compound 3.16 µM, first compound 1 µM
  viability, T/C: 2.05%
Second compound 10 µM, first compound 0.00316 µM
  viability, T/C: 18.9%
Second compound 10 µM, first compound 0.01 µM
  viability, T/C: 12%
Second compound 10 µM, first compound 0.0316 µM
  viability, T/C: 11.1%
Second compound 10 µM, first compound 0.1 µM
  viability, T/C: 12.5%
Second compound 10 µM, first compound 0.316 µM
  viability, T/C: 9.62%
Second compound 10 µM, first compound 1 µM
  viability, T/C: 1.61%
